In paper PMC11845477, “Exploring the principles behind antibiotics with limited resistance” (Nature Communications, 2025):
Where a SMILES comes first, the peptide text is derived from it. Bridges are numbered along the chain shown (N, C = ends). [ ]: non-standard residue; d: D form. The star is where a group is joined. X1 = NC[C@@H](CC(=O)*)c1cccc(Cl)c1; Dab = NCC[C@H](N)C(=O)O; Dap = NC[C@H](N)C(=O)O

Tested on: K. pneumoniae ATCC 10031 (SEN) and K. pneumoniae ATCC 700603 (MDR)
Assay: Adaptive laboratory evolution (ALE), relative MIC of evolved lines
Assay type: cell-based, Klebsiella pneumoniae
Outline: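 Ten parallel populations per antibiotic–ancestor pair were evolved in MHB at 37 °C, starting near 50% growth-inhibiting drug. Every 72 h they were passaged into 0.5–2.5× increasing concentrations, keeping the highest-drug well with OD600 > 0.2.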

[1] = KP-MDR (Klebsiella pneumoniae ATCC 700603), evolved line 4
[2] = KP-MDR (Klebsiella pneumoniae ATCC 700603), evolved line 6
[3] = KP-MDR (Klebsiella pneumoniae ATCC 700603), evolved line 8
[4] = KP-MDR (Klebsiella pneumoniae ATCC 700603), evolved line 10
[5] = KP-SEN (Klebsiella pneumoniae ATCC 10031), evolved line 1
[6] = KP-SEN (Klebsiella pneumoniae ATCC 10031), evolved line 3
[7] = KP-SEN (Klebsiella pneumoniae ATCC 10031), evolved line 4
[8] = KP-SEN (Klebsiella pneumoniae ATCC 10031), evolved line 6
[9] = KP-SEN (Klebsiella pneumoniae ATCC 10031), evolved line 10

Structure (SMILES): CC(C)C[C@@H]1NC(=O)[C@@H](Cc2ccccc2)NC(=O)[C@H](CCN)NC(=O)[C@@H](NC(=O)[C@H](CN)NC(=O)[C@@H](NC(=O)C[C@H](CN)c2cccc(Cl)c2)[C@@H](C)O)CCNC(=O)[C@H]([C@@H](C)O)NC(=O)[C@H](CCN)NC(=O)[C@H](CCN)NC1=O [SPR206] (X1-T[Dap][Dab][Dab][dF]L[Dab][Dab]T; lactam 3-C (inferred); N-terminus assumed)
- Relative MIC (log10) (KP-MDR (Klebsiella pneumoniae ATCC 700603), evolved line 2): 3.0103 log10
- Relative MIC (KP-MDR (Klebsiella pneumoniae ATCC 700603), evolved line 3): 512
- Relative MIC [1]: 256
- Relative MIC (log10) [1]: 2.408 log10
- Relative MIC (KP-MDR (Klebsiella pneumoniae ATCC 700603), evolved line 5): 256
- Relative MIC [2]: 512
- Relative MIC (log10) [2]: 2.709 log10
- Relative MIC (KP-MDR (Klebsiella pneumoniae ATCC 700603), evolved line 7): 512
- Relative MIC [3]: 1024
- Relative MIC (log10) [3]: 3.0103 log10
- Relative MIC (KP-MDR (Klebsiella pneumoniae ATCC 700603), evolved line 9): 1024
- Relative MIC [4]: 512
- Relative MIC (log10) [4]: 2.709 log10
- MIC of evolved line (KP-SEN (K. pneumoniae ATCC 10031), evolved line 1 of the given antibiotic): 1020 µg/mL
- Relative MIC (KP-SEN (K. pneumoniae ATCC 10031), evolved line 1 vs ancestor): 2048
- MIC of evolved line (KP-SEN (K. pneumoniae ATCC 10031), evolved line 2 of the given antibiotic): 1 µg/mL
- Relative MIC (KP-SEN (K. pneumoniae ATCC 10031), evolved line 2 vs ancestor): 2
- MIC of evolved line (KP-SEN (K. pneumoniae ATCC 10031), evolved line 3 of the given antibiotic): 1020 µg/mL
- Relative MIC (KP-SEN (K. pneumoniae ATCC 10031), evolved line 3 vs ancestor): 2048
- MIC of evolved line (KP-SEN (K. pneumoniae ATCC 10031), evolved line 4 of the given antibiotic): 1020 µg/mL
- Relative MIC (KP-SEN (K. pneumoniae ATCC 10031), evolved line 4 vs ancestor): 2048
- MIC of evolved line (KP-SEN (K. pneumoniae ATCC 10031), evolved line 6 of the given antibiotic): 1020 µg/mL
- Relative MIC (KP-SEN (K. pneumoniae ATCC 10031), evolved line 6 vs ancestor): 2048
- MIC of evolved line (KP-SEN (K. pneumoniae ATCC 10031), evolved line 7 of the given antibiotic): 1 µg/mL
- Relative MIC (KP-SEN (K. pneumoniae ATCC 10031), evolved line 7 vs ancestor): 2
- MIC of evolved line (KP-SEN (K. pneumoniae ATCC 10031), evolved line 8 of the given antibiotic): 1 µg/mL
- Relative MIC (KP-SEN (K. pneumoniae ATCC 10031), evolved line 8 vs ancestor): 2
- MIC of evolved line (KP-SEN (K. pneumoniae ATCC 10031), evolved line 10 of the given antibiotic): 1020 µg/mL
- Relative MIC (KP-SEN (K. pneumoniae ATCC 10031), evolved line 10 vs ancestor): 2048
- Relative MIC [5]: 2048
- Relative MIC (log10) [5]: 3.311 log10
- Relative MIC (KP-SEN (Klebsiella pneumoniae ATCC 10031), evolved line 2): 2
- Relative MIC [6]: 2048
- Relative MIC (log10) [6]: 3.311 log10
- Relative MIC [7]: 2048
- Relative MIC (log10) [7]: 3.311 log10
- Relative MIC [8]: 2048
- Relative MIC (log10) [8]: 3.311 log10
- Relative MIC (KP-SEN (Klebsiella pneumoniae ATCC 10031), evolved line 8): 2
- Relative MIC [9]: 2048
- Relative MIC (log10) [9]: 3.311 log10
- Relative MIC (KP-SEN, Klebsiella pneumoniae ATCC 10031, evolved line 7): 2
- Relative MIC (Klebsiella pneumoniae ATCC 10031 (KP-SEN), evolved line 1): 2048
- Relative MIC (Klebsiella pneumoniae ATCC 10031 (KP-SEN), evolved line 2): 2
- Relative MIC (Klebsiella pneumoniae ATCC 10031 (KP-SEN), evolved line 3): 2048
- Relative MIC (Klebsiella pneumoniae ATCC 10031 (KP-SEN), evolved line 4): 2048
- Relative MIC (Klebsiella pneumoniae ATCC 10031 (KP-SEN), evolved line 6): 2048
- Relative MIC (Klebsiella pneumoniae ATCC 10031 (KP-SEN), evolved line 7): 2
- Relative MIC (Klebsiella pneumoniae ATCC 10031 (KP-SEN), evolved line 8): 2
- Relative MIC (Klebsiella pneumoniae ATCC 10031 (KP-SEN), evolved line 10): 2048
- Relative MIC (Klebsiella pneumoniae ATCC 700603 (KP-MDR), evolved line 1): 256
- Relative MIC (Klebsiella pneumoniae ATCC 700603 (KP-MDR), evolved line 2): 1024
- Relative MIC (Klebsiella pneumoniae ATCC 700603 (KP-MDR), evolved line 3): 512
- Relative MIC (Klebsiella pneumoniae ATCC 700603 (KP-MDR), evolved line 4): 256
- Relative MIC (Klebsiella pneumoniae ATCC 700603 (KP-MDR), evolved line 5): 256
- Relative MIC (Klebsiella pneumoniae ATCC 700603 (KP-MDR), evolved line 6): 512
- Relative MIC (Klebsiella pneumoniae ATCC 700603 (KP-MDR), evolved line 7): 512
- Relative MIC (Klebsiella pneumoniae ATCC 700603 (KP-MDR), evolved line 8): 1024
- Relative MIC (Klebsiella pneumoniae ATCC 700603 (KP-MDR), evolved line 9): 1024
- Relative MIC (Klebsiella pneumoniae ATCC 700603 (KP-MDR), evolved line 10): 512
